Measured values as given in ChEMBL document CHEMBL1201862, “PubChem BioAssay data set” (2004).
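Each compound was tested at five concentrations against cells in 96-well plates for 48 hours. Here, GI50 denotes the concentration required for 50% inhibition of growth.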 Active and inactive are the calls of the source. Cut-off read from the data, not from the text of the source: active = GI50 up to about 1.1 µM and inactive = higher.

How the values were obtained:
Experiment in all cases: growth of human tumour cells (NCI), 48 h
[1] = system: SF-539
[2] = system: HCT-15
[3] = system: SF-268
[4] = system: SF-295
[5] = system: K562
[6] = system: SR
[7] = system: ACHN
[8] = system: Malme-3M
[9] = system: M14
[10] = system: SNB-75
[11] = system: NCI/ADR-RES
[12] = system: MDA-MB-231
[13] = system: COLO 205
[14] = system: SN12C
[15] = system: PC-3
[16] = system: SK-MEL-28
[17] = system: RXF 393
[18] = system: NCI-H522
[19] = system: OVCAR-4
[20] = system: MDA-N
[21] = system: CAKI-1
[22] = system: T47D
[23] = system: MOLT-4
[24] = system: UO-31
[25] = system: HCT-116
[26] = system: SW-620
[27] = system: OVCAR-5
[28] = system: OVCAR-8
[29] = system: MDA-MB-435
[30] = system: TK-10
[31] = system: MCF7
[32] = system: UACC-62
[33] = system: NCI-H23
[34] = system: CCRF-CEM
[35] = system: DU-145
[36] = system: U-251
[37] = system: EKVX
[38] = system: HCC 2998
[39] = system: KM12
[40] = system: BT-549
[41] = system: SK-OV-3
[42] = system: NCI-H226
[43] = system: HL-60
[44] = system: HOP-92
[45] = system: OVCAR-3
[46] = system: UACC-257
[47] = system: NCI-H460
[48] = system: SNB-19
[49] = system: A549
[50] = system: LOX IMVI
[51] = system: HT-29
[52] = system: IGROV-1
[53] = system: HOP-62
[54] = system: 786-0
[55] = system: A498
[56] = system: SK-MEL-5
[57] = system: SK-MEL-2
[58] = system: RPMI-8226

With `COC(=O)c1c([N+](=O)[O-])ncn1[C@H]1OC[C@@H](OC(C)=O)[C@@H](OC(C)=O)[C@@H]1OC(C)=O` the GI50 [1] was > 100 µM (inactive), the GI50 [2] was over 100 µM and the GI50 [3] was > 100 µM (inactive). The GI50 [4] was > 100 µM (inactive), the GI50 [5] was > 100 µM (inactive) and the GI50 [6] was > 100 µM (inactive). For the same compound, the GI50 [7] was > 100 µM (inactive), the GI50 [8] was > 100 µM (inactive) and the GI50 [9] was > 100 µM (inactive). For the same compound, the GI50 [10] was > 100 µM (inactive), the GI50 [11] was > 100 µM (inactive) and the GI50 [12] was > 100 µM (inactive). For the same compound, the GI50 [13] was > 100 µM (inactive), the GI50 [14] was > 100 µM (inactive) and the GI50 [15] was > 100 µM (inactive). For the same compound, the GI50 [16] was > 100 µM (inactive), the GI50 [17] was > 100 µM (inactive) and the GI50 [18] was > 100 µM (inactive). For the same compound, the GI50 [19] was > 100 µM (inactive), the GI50 [20] was > 100 µM (inactive) and the GI50 [21] was > 100 µM (inactive). The GI50 [22] was > 100 µM (inactive), the GI50 [23] was > 100 µM (inactive) and the GI50 [24] was > 100 µM (inactive). The GI50 [25] was > 100 µM (inactive), the GI50 [26] was > 100 µM (inactive) and the GI50 [27] was > 100 µM (inactive). The GI50 [28] was > 100 µM (inactive), the GI50 [29] was > 100 µM (inactive) and the GI50 [30] was > 100 µM (inactive). For the same compound, the GI50 [31] was > 100 µM (inactive), the GI50 [32] was > 100 µM (inactive) and the GI50 [33] was > 100 µM (inactive). The GI50 [34] was > 100 µM (inactive), the GI50 [35] was > 100 µM (inactive) and the GI50 [36] was > 100 µM (inactive). The GI50 [37] was > 100 µM (inactive), the GI50 [38] was > 100 µM (inactive) and the GI50 [39] was > 100 µM (inactive). For the same compound, the GI50 [40] was > 100 µM (inactive), the GI50 [41] was > 100 µM (inactive) and the GI50 [42] was > 100 µM (inactive). For the same compound, the GI50 [43] was > 100 µM (inactive), the GI50 [44] was > 100 µM (inactive) and the GI50 [45] was > 100 µM (inactive). The GI50 [46] was > 100 µM (inactive), the GI50 [47] was > 100 µM (inactive) and the GI50 [48] was > 100 µM (inactive). For the same compound, the GI50 [49] was > 100 µM (inactive), the GI50 [50] was > 100 µM (inactive) and the GI50 [51] was > 100 µM (inactive). The GI50 [52] was > 100 µM (inactive), the GI50 [53] was > 100 µM (inactive) and the GI50 [54] was > 100 µM (inactive). The GI50 [55] was > 100 µM (inactive).
With `CC(=O)O[C@H]1CC(C)(C)C(=C=C/C(C)=C/C=C/C=C/C=C(C)/C=C2C=C(/C=C/[C@@]34O[C@]3(C)C[C@@H](O)CC4(C)C)C(=O)O/2)[C@](C)(O)C1` the GI50 [1] was 17.8 µM (inactive), the GI50 [2] was 11 µM and the GI50 [3] was 15 µM (inactive). For the same compound, the GI50 [4] was 13.5 µM (inactive), the GI50 [5] was 10 µM (inactive) and the GI50 [6] was 6.76 µM (inactive). The GI50 [56] was 8.43 µM (inactive), the GI50 [7] was 19.3 µM (inactive) and the GI50 [8] was 16.7 µM (inactive). For the same compound, the GI50 [9] was 11.7 µM (inactive), the GI50 [10] was 10 µM (inactive) and the GI50 [11] was 5.93 µM (inactive). For the same compound, the GI50 [12] was 31.1 µM (inactive), the GI50 [13] was 19.6 µM (inactive) and the GI50 [14] was 11.7 µM (inactive). The GI50 [57] was 3.31 µM (inactive), the GI50 [15] was 4.22 µM (inactive) and the GI50 [16] was 23.6 µM (inactive). For the same compound, the GI50 [17] was 4.01 µM (inactive), the GI50 [18] was 3.99 µM (inactive) and the GI50 [19] was 4.75 µM (inactive). The GI50 [20] was 12.7 µM (inactive), the GI50 [21] was 30.8 µM (inactive) and the GI50 [22] was 4.27 µM (inactive). For the same compound, the GI50 [23] was 3.85 µM (inactive), the GI50 [24] was 15.8 µM (inactive) and the GI50 [25] was 5.33 µM (inactive). The GI50 [58] was 4.38 µM (inactive), the GI50 [26] was 19.6 µM (inactive) and the GI50 [27] was 19.1 µM (inactive). For the same compound, the GI50 [28] was 3.76 µM (inactive), the GI50 [29] was 14.8 µM (inactive) and the GI50 [30] was 0.959 µM (active). The GI50 [31] was 3.81 µM (inactive), the GI50 [32] was 7.93 µM (inactive) and the GI50 [33] was 5.14 µM (inactive). The GI50 [34] was 2.94 µM (inactive), the GI50 [35] was 33.2 µM (inactive) and the GI50 [36] was 10.7 µM (inactive). For the same compound, the GI50 [37] was > 10 µM (inactive), the GI50 [38] was 20.7 µM (inactive) and the GI50 [39] was 5.4 µM (inactive). The GI50 [40] was 2.51 µM (inactive), the GI50 [42] was 1.62 µM (inactive) and the GI50 [43] was 1.78 µM (inactive). The GI50 [44] was 12.6 µM (inactive), the GI50 [45] was 10.1 µM (inactive) and the GI50 [46] was 12.8 µM (inactive). The GI50 [47] was 8.09 µM (inactive), the GI50 [48] was 30.6 µM (inactive) and the GI50 [49] was 11.5 µM (inactive). For the same compound, the GI50 [51] was 21.2 µM (inactive), the GI50 [52] was 2.88 µM (inactive) and the GI50 [53] was 13.3 µM (inactive). The GI50 [54] was 16 µM (inactive) and the GI50 [55] was 24.7 µM (inactive).
